The record followed here is patent publication US20260035364A1, “BICYCLIC TETRAHYDROTHIAZEPINE DERIVATIVES” (Hoffmann-La Roche Inc., priority 2022, published 2026).

The target of one assay is DGKzeta (Homo sapiens, UniProt Q13574). The assay can be described thus: In vitro DGK inhibition assay (ADP-Glo, liposomes), DGKzeta. The format is biochemical. More on the design: hDGKzeta(1-928)-N-His; His (N); made in house; host or cells: Sf21 insect cells (baculovirus). The note with it: 2 nM DGK ζ, 50 μM ATP, 125 uM DLG in liposomes, 1 hour reaction. Put shortly:
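DGKζ (2 nM) phosphorylated DLG presented in DLG/PS/PC liposomes (final DLG 125 μM) with 50 μM ATP for 1 hour. ADP formed was read by ADP-Glo luminescence. Compounds were tested as 11-point 1:3 dose responses in 2% final DMSO.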
Background: ADP-Glo first removes unused ATP, then detects ADP through luciferase.

The test system of another assay is primary human T-cells. Nature of the assay: T-cell proliferation assay (CellTiter-Glo). Type of assay: cell-based. The note with it: Homo sapiens, T-cell, 120 h, CD3 condition; for Emax: 5 days, 20 μM reference compound A1 = 100%, read-out: Emax proliferation (% activation); for EC50: proliferation after 5 days, CellTiter-Glo, read-out: Tcell Proliferation CD3 EC50. In short, it runs like this:
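Expanded primary human T-cells (100k/well) on plates coated with CD3 antibody or PBS only, given a 5- or 6-point dose response (top 20 or 10 μM final, 3.333-fold steps, 0.2% DMSO). ATP measured by CellTiter-Glo 2.0 luminescence after 5 days. Normalized to DMSO and 20 μM reference A1 (100%); EC50 and Emax reported for CD3 conditions.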
A general note: In ATP-based viability assays light output follows the ATP content of the culture.

Sequence of DGKzeta (Q13574 whole entry): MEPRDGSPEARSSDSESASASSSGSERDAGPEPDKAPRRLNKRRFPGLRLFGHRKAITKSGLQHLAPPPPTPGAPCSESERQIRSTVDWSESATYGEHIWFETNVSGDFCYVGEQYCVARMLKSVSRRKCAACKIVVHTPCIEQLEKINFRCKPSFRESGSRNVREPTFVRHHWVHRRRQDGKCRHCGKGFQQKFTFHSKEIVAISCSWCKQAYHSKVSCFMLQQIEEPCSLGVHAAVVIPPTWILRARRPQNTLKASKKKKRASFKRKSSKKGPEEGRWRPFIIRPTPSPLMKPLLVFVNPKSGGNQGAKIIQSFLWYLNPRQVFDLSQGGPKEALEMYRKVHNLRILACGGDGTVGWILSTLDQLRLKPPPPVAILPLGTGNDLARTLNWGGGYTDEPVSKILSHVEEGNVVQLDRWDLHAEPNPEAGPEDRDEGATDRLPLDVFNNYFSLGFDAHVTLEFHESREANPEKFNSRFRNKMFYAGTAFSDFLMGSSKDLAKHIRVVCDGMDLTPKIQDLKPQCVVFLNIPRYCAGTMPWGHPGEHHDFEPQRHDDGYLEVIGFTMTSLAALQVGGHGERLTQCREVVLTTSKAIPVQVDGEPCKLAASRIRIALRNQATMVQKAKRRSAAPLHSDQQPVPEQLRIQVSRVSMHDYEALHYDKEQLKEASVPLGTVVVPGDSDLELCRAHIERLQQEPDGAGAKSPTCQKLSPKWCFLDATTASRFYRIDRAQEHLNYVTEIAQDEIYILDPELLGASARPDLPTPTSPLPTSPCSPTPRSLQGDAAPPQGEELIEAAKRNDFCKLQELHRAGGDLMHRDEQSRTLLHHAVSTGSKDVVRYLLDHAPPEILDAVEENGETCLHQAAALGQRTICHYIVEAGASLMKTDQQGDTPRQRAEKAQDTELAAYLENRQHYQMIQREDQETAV

With `CCC(CC)Oc1ccc(CN2C(=O)[C@@H](N)CS(=O)(=O)c3ccc(-c4nnc(C(C)(C)S(C)(=O)=O)o4)cc32)cc1` [Example 19, (3R)-3-amino-5-[[4-(1-ethylpropoxy)phenyl]methyl]-7-[5-(1-methyl-1-methylsulfonyl-ethyl)-1,3,4-oxadiazol-2-yl]-1,1-dioxo-2,3-dihydro-1λ6,5-benzothiazepin-4-one], at DGKzeta, the 50% inhibitory concentration (IC50) (commonly the concentration needed to halve the response being measured) stood at 1520 nM. Moreover, in the assay on primary human T-cells, the Emax amounted to 78% and the EC50 worked out at 2760 nM.
`CC(C)(c1nnc(-c2cc3c(cc2F)S(=O)(=O)C[C@H](N)C(=O)N3Cc2ccc(-c3ccc(C(F)(F)F)nc3)cc2)o1)S(C)(=O)=O` [Example 36] registered a 50% inhibitory concentration (IC50) against DGKzeta of 414 nM. In the assay with primary human T-cells, the Emax amounted to 112% and the EC50 came to 1680 nM.
On to `CC(C)(c1nnc(-c2ccc3c(c2)N(Cc2ccc(Oc4cccc(F)c4)cc2)C(=O)[C@@H](N)CS3(=O)=O)o1)S(C)(=O)=O` [Example 33, (3R)-3-amino-5-[[4-(3-fluorophenoxy)phenyl]methyl]-7-[5-(1-methyl-1-methylsulfonyl-ethyl)-1,3,4-oxadiazol-2-yl]-1,1-dioxo-2,3-dihydro-1λ6,5-benzothiazepin-4-one], for which 539 nM corresponded to half-maximal inhibition against DGKzeta (IC50). In the assay on primary human T-cells, the Emax worked out at 82% and the EC50 came out at 645 nM.
On the same counts, the results for `CC(C)(c1nnc(-c2ccc3c(c2)N(Cc2ccc(Oc4cccc(OC(F)(F)F)c4)cc2)C(=O)[C@@H](N)CS3(=O)=O)o1)S(C)(=O)=O` [Example 40, (3R)-3-amino-7-[5-(1-methyl-1-methylsulfonyl-ethyl)-1,3,4-oxadiazol-2-yl]-1,1-dioxo-5-[[4-[3-(trifluoromethoxy)phenoxy]phenyl]methyl]-2,3-dihydro-126,5-benzothiazepin-4-one] are 893 nM, 148% and 903 nM.
For `CN(C)S(=O)(=O)C(C)(C)c1nnc(-c2ccc3c(c2)N(Cc2ccc(-c4ccc(C(F)(F)F)cc4)cc2)C(=O)[C@@H](N)CS3(=O)=O)o1` [Example 65, 2-[5-[(3R)-3-amino-1,1,4-trioxo-5-[[4-[4-(trifluoromethyl)phenyl]phenyl]methyl]-2,3-dihydro-1λ6,5-benzothiazepin-7-yl]-1,3,4-oxadiazol-2-yl]-N,N-dimethyl-propane-2-sulfonamide] the same measures were 8370 nM, 155% and 2620 nM.
`CC(C)(c1nc(-c2cc3c(cc2F)S(=O)(=O)C[C@H](N)C(=O)N3Cc2ccc(Cl)cc2)no1)S(C)(=O)=O` [Example 43, (3R)-3-amino-5-[(4-chlorophenyl)methyl]-8-fluoro-7-[5-(1-methyl-1-methylsulfonyl-ethyl)-1,2,4-oxadiazol-3-yl]-1,1-dioxo-2,3-dihydro-1λ6,5-benzothiazepin-4-one] yielded an IC50 on DGKzeta of 192 nM. For the same compound, in the assay with primary human T-cells, the Emax was 153% and the EC50 came out at 75 nM.
On the same counts, the results for `CS(=O)(=O)C1(c2nnc(-c3ccc4c(c3)N(Cc3ccc(Oc5ccccc5)cc3)C(=O)[C@@H](N)CS4(=O)=O)o2)CCC1` [Example 68, (3R)-3-amino-7-[5-(1-methylsulfonylcyclobutyl)-1,3,4-oxadiazol-2-yl]-1,1-dioxo-5-[(4-phenoxyphenyl)methyl]-2,3-dihydro-1λ6,5-benzothiazepin-4-one] are 3500 nM, 83% and 2290 nM.
On the same counts, the results for `CC(C)(c1nnc(-c2ccc3c(c2)N(Cc2ccc(Oc4ccccc4)cc2)C(=O)[C@@H](N)CS3(=O)=O)o1)S(C)(=O)=O` [Example 5, (3R)-3-amino-7-[5-(1-methyl-1-methylsulfonyl-ethyl)-1,3,4-oxadiazol-2-yl]-1,1-dioxo-5-[(4-phenoxyphenyl)methyl]-2,3-dihydro-1λ6,5-benzothiazepin-4-one] are 701 nM, 120% and 942 nM.
For `CC(C)(c1nnc(-c2ccc3c(c2)N(Cc2ccc(-c4ccc(F)cn4)cc2)C(=O)[C@@H](N)CS3(=O)=O)o1)S(C)(=O)=O` [Example 9, (3R)-3-amino-5-[[4-(5-fluoro-2-pyridyl)phenyl]methyl]-7-[5-(1-methyl-1-methylsulfonyl-ethyl)-1,3,4-oxadiazol-2-yl]-1,1-dioxo-2,3-dihydro-1λ6,5-benzothiazepin-4-one], the IC50 at DGKzeta amounted to 1320 nM. In the assay with primary human T-cells, the Emax came to 82% and the EC50 was 2700 nM.
For `CS(=O)(=O)Cn1nnc(-c2cc3c(cc2F)S(=O)(=O)C[C@H](N)C(=O)N3Cc2ccc(Oc3ccccc3)cc2)n1` [Example 54, (3R)-3-amino-8-fluoro-7-[2-(methylsulfonylmethyl)tetrazol-5-yl]-1,1-dioxo-5-[(4-phenoxyphenyl)methyl]-2,3-dihydro-1λ6,5-benzothiazepin-4-one] the same measures were 603 nM, 310% and 1540 nM.
As to `COc1ccc(-c2ccc(CN3C(=O)[C@@H](N)CS(=O)(=O)c4ccc(-c5nnc(C(C)(C)S(C)(=O)=O)o5)cc43)cc2)c(C)c1` [Example 49, (3R)-3-amino-5-[[4-(4-methoxy-2-methyl-phenyl)phenyl]methyl]-7-[5-(1-methyl-1-methylsulfonyl-ethyl)-1,3,4-oxadiazol-2-yl]-1,1-dioxo-2,3-dihydro-1λ6,5-benzothiazepin-4-one], half-maximal inhibition at DGKzeta (IC50) was put at 1460 nM. In the assay on primary human T-cells, the Emax came to 111% and the EC50 is 3130 nM.
For `CS(=O)(=O)C1(c2nnc(-c3ccc4c(c3)N(Cc3ccc(Oc5ccccc5)cc3)C(=O)[C@@H](N)CS4(=O)=O)o2)CC1` [Example 66, (3R)-3-amino-7-[5-(1-methylsulfonylcyclopropyl)-1,3,4-oxadiazol-2-yl]-1,1-dioxo-5-[(4-phenoxyphenyl)methyl]-2,3-dihydro-1λ6,5-benzothiazepin-4-one] the same measures were 1160 nM, 144% and 2170 nM.
On the same counts, the results for `COc1cc(Cl)cc(Oc2ccc(CN3C(=O)[C@@H](N)CS(=O)(=O)c4ccc(-c5nnc(C(C)(C)S(C)(=O)=O)o5)cc43)cc2)c1` [Example 41, (3R)-3-amino-5-[[4-(3-chloro-5-methoxy-phenoxy)phenyl]methyl]-7-[5-(1-methyl-1-methylsulfonyl-ethyl)-1,3,4-oxadiazol-2-yl]-1,1-dioxo-2,3-dihydro-1λ6,5-benzothiazepin-4-one] are 2290 nM, 97% and 1710 nM.
On to `CC(C)(c1nnc(-c2ccc3c(c2)N(Cc2ccc(SC(F)(F)F)cc2)C(=O)[C@@H](N)CS3(=O)=O)o1)S(C)(=O)=O` [Example 7], for which, at DGKzeta, the IC50 was determined as 1710 nM. Moreover, in the assay on primary human T-cells, the Emax was 76% and the EC50 was 3590 nM.
For `COc1cccc(Oc2ccc(CN3C(=O)[C@@H](N)CS(=O)(=O)c4ccc(-c5nnc(C(C)(C)S(C)(=O)=O)o5)cc43)cc2)c1` [Example 42] the same measures were 413 nM, 205% and 674 nM.
As to `CC(C)(c1nnc(-c2ccc3c(c2)N(Cc2ccc(Oc4ccccc4)cc2)C(=O)[C@@H](N)CS3(=O)=O)o1)S(=O)(=O)C1CC1` [Example 61, (3R)-3-amino-7-[5-(1-cyclopropylsulfonyl-1-methyl-ethyl)-1,3,4-oxadiazol-2-yl]-1,1-dioxo-5-[(4-phenoxyphenyl)methyl]-2,3-dihydro-1λ6,5-benzothiazepin-4-one], the concentration for half-maximal inhibition (IC50) at DGKzeta was determined as 768 nM. In the assay with primary human T-cells, the Emax came to 58% and the EC50 amounted to 4560 nM.
